This data set in a line: small volume in vitro release in 50 ml 0.1N HCl. The following applies: 37° C., 150 rpm. The format is physicochemical. The method, then:
The formulations were tested for their small volume in vitro release characteristics in 50 ml 0.1N HCl at 37° C. and 150 rpm using the following procedure: III. Instrumentation (or Equivalent) • a. Automated Dissolution System comprising of: • Hanson SR8 Plus Test Station • Hanson Auto Plus Maximiser System Controller • Hanson Auto Plus MultiFill Fraction Collector • b. […] Procedure • Place one weighed capsule in each vessel containing 0.1N HCl and immediately operate the apparatus for 30 min. • Unless otherwise specified, 3 ml samples are withdrawn from each vessel and immediately filtered through PTFE membranes at 15 and 30 min. IV.
The small volume was chosen as a model of the conditions in a fasted stomach.

This note sets out measurements from patent US20060222706A1 (priority 2005, published 2006).

Each structure is given as a SMILES string.

With `CC(C)OC(=O)C(C)(C)Oc1ccc(C(=O)c2ccc(Cl)cc2)cc1` [Micronized Fenofibrate], the “dissolution under small volume model condition (in words)” value is “no dissolution at all”.
